Laboratory results taken from patent EP0073758B1, “TREATMENT OF INFLAMMATORY VIRAL INFECTIONS, ACNE, DERMATITIS AND ARTHRITIS CONDITIONS” (priority 1981, dated 1982).

Assays:
[1] = ingested into the human body; rest excreted in the feces; cited from earlier work
solubility in DMSO = assay type: physicochemical; details: per one milliliter DMSO; maximum solubility not determined
Protocol: Topical applications were prepared for the treatment of the external conditions, deseases and symptoms of arthritis, rheumatism, and rheumatoid arthritis or similar conditions. Phenolphthalein was formulated with a topical carrier of dimethyl sulfoxide (DMSO) to aid in the application of phenolphthalein to, and its absorption into, the affected area for the relief of pain and the treatment of the area. It has been discovered that DMSO is an especially effective solvent for phenolphthalein. As little as one milliliter of liquid DMSO will dissolve two-hundred milligrams of phenolphthalein, or powders containing phenolphthalein. This factor coupled with the known ability of DMSO to penetrate organic tissue are believed to allow smaller dosages of phenolphthalein to be used in both oral and topical applications as well as in preparation of injectable solutions. For example the DMSO/phenol- phthalein solution can be formulated into topical carriers which should enhance the penetration of phenolphthalein into the skin, or ingested.

[2] = topical application in acne; assay type: in vivo; details: 500 milligrams in 57 g of carrier
Text: In preparing topical applications for the treatment of external conditions, such as dermatitis and acne as well as arthritis, rheumatism, and related conditions, it is within the scope of the invention to formulate phenolphthalein with suitable carriers and bases to aid in the application to, or absorption into, the target or affected area. One group of carriers is the oil-based carriers for external application this group includes dimethyl sulfoxide (DMSO), petrolatum, mineral oil, and anhydrous lanolin. In most topical applications the concentration of the phenolphthalein in the carrier may vary widely. […] It is believed that a concentration of at least about 250 milligrams per 28 g of carrier will be effective.

[3] = oral dosages against canker sores; assay type: in vivo
[4] = test system: Herpes Simplex infections; assay: oral dosages administered to victims of Herpes Simplex infections; assay type: in vivo
[5] = stated as well known; cited from earlier work
Herpes Labialis = assay type: in vivo, patients
Protocol: In an informal clinical study 41 patients with symptoms of Herpes Labialis were treated with oral dosages of phenolphthalein. The patients were treated at different times over a period of about two months. The initial dosage was one hundred milligrams administered every 8 hours for the first day and every 12 hours thereafter. […] Of the 41 patients treated, 39 made complete recovery within two days without any noticeable development of the cold sore. The other two patients made complete recovery with no swelling or visible evidence of the cold sore remaining after three days. A control group of 24 patients with Herpes Labialis history were selected at random from clinical files as a control group. Of the 24 patients, 5 were excluded because of the total absence of early indications of infection. The other 19 patients were treated conventionally over a 10 day period. Only 4 experienced even partial relief from developing cold sores and 15 developed active cold sores and blisters which lasted up to 4 weeks.
The results of this informal study indicate that phenolphthalein is a very effective drug for preventing and arresting the development of cold sores and blisters at the time of initial appearance in patients.

## O=C1OC(c2ccc(O)cc2)(c2ccc(O)cc2)c2ccccc21 [phenolphthalein, 3,3 - Bis(p - hydroxyphenyl) - phthalide]
[1]
  active drug in solution absorbed into the blood stream: less than 15%
Solubility in DMSO
  amount dissolved by one milliliter of liquid DMSO: two-hundred
[2]
  effect against acne: effective against acne
[3]
  relief and cure of canker sores: effective to relieve and cure canker sores within a matter of hours
[4]
  treatment of Herpes Simplex infections, including cold sores, fever blisters and Herpes Genitalis: successfully administered
[5]
  solubility in water: highly insoluble in water
Herpes Labialis; human, in vivo, po
  laxative effect: complaints related to the laxative effect
Herpes Labialis; of the 41 patients treated, oral, initially one hundred milligrams, later 30 milligrams, every 8 hours first day, every 12 hours thereafter
  patients who made complete recovery within two days without any noticeable development of the cold sore: 39
Herpes Labialis; of the 41 patients treated, same oral regimen
  patients who made complete recovery with no swelling or visible evidence of the cold sore remaining after three days: two
Herpes Labialis; the 41 patients treated
  follow-up observations: development of Herpes Labialis: no development of Herpes Labialis
